According to US6676941B2 (Board of Regents, The University of Texas System, priority 1999, dated 2004):

What was measured:
VEGFR2 (KDR/Fc) = experiment: Co-precipitation assay, VEGF binding to VEGFR2/Fc in solution; settings: 40 ng VEGF, 200 ng receptor/Fc; 2C3 F(ab′)2 20 μg, A4.6.1 F(ab′)2 10 and 1 μg
Method: (§1) 200 ng of soluble forms of VEGFR1 (Flt-1/Fc) or VEGFR2 (KDR/Fc, R&D Systems, Minneapolis, Minn.) were added for a total volume of 50 μl and incubated for 2 hrs. The receptor/Fc constructs were precipitated using Protein A-sepharose beads and the resulting precipitate was washed 4 times with binding buffer.
(§2) Reducing sample buffer was added to the pellet and supernatant of each reaction and both were analyzed by 12% SDS-PAGE and transferred to PVDF membranes. […] The soluble receptor/Fc constructs were also detected by using peroxidase-conjugated goat anti-human Fc (Kirkegaard & Perry Laboratories, Inc.)
(§3) The receptor/Fc constructs were precipitated by incubation with Protein A sepharose beads. The precipitate was washed and resuspended in reducing sample buffer and separated by 12% SDS-PAGE and transferred to PVDF.

VEGFR1 (Flt-1/Fc) = experiment: Co-precipitation assay, VEGF binding to VEGFR1/Fc in solution; settings: 40 ng VEGF, 200 ng receptor/Fc; 2C3 F(ab′)2 20 μg, A4.6.1 F(ab′)2 10 and 1 μg
Method: as §1, §2, §3

[1] = Blood clearance of radioiodinated 2C3-GUS after intravenous injection; format: in vivo; settings: 125I-labelled, intravenous injection into mice
Text: 2C3-GUS was radioiodinated with ^125I to a specific activity of 5×10^6 cpm/μg.

[2] = Enzymatic activity of the GUS portion of 2C3-GUS; format: biochemical
Text: The 6-His GUS was pure based upon SDS-PAGE, where it ran as a single band of 75 kDa band. On gel filtration columns, the 6-His GUS runs as a tetramer of about 300 kDa.
The biological activity of each component of the 2C3-GUS conjugate was confirmed.

VEGFR2 = experiment: VEGF-induced phosphorylation of VEGFR2 in PAE/KDR cells (immunoprecipitation, western blot); format: cell-based; settings: 15 min stimulation, antibodies at 100 nM (15 μg/ml)
Method: PAE/KDR, PAE/FLT, and bEND.3 cells were grown to 80-90% confluency in 100 mm tissue dishes in media containing 5% serun. The cells were then serum starved for 24 hours in media containing 0.1% serum. After pretreatment with […] sodium orthovanadate in PBS for 30 min, the cells were incubated with 5 nM (200 ng/ml) VEGF165, 5 nM (100 ng/ml) bFGF (R&D Systems, Minneapolis, Minn.), or A673 tumor conditioned media in the presence or absence of control or test antibodies for additional 15 min.
The cells were then washed with ice-cold PBS containing 10 mM EDTA, 2 mM sodium fluoride, and 2 mM sodium orthovanadate and lysed in lysis buffer (50 mM Tris, 150 mM NaCl, 1% Nonidet P-40, 0.25% sodium deoxycholate, 0.1% CHAPS, 5 mM EDTA, 1.5 mM MgCl2, 2 mM sodium fluoride, 2 mM sodium orthovanadate, 10% glycerol and protease inhibitors (Complete Protease Inhibitor Cocktail tablets, Boehringer Mannheim)). The lysates were clarified by centrifugation and resulting supernatant used for immunoprecipitation.
The reactions using the chicken anti-FLT-1 antibody were subsequently incubated with a bridging goat anti-chicken antibody (Kirkegaard and Perry Laboratories, Inc.) for 1 h at 4° C. […]

[3] = system: VEGF-mediated growth of ABAE cells; experiment: Endothelial cell growth assay (MTS), VEGF-mediated growth of ABAE cells; format: cell-based, bovine; settings: Table 5 summary
Method: Adult bovine aortic endothelial (ABAE) cells were plated into 96-well tissue culture plates at 1500 cells/well and grown in the presence of 0.5 nM human VEGF with the addition of the various sample and control antibodies. Control wells received media with or without VEGF.
After 4 days of incubation, the cells were quantified by an MTS (3-(4,5-dimethylthiazol-2-yl)-5-(3-carboxylmethoxyphenyl)-2-(4-sulfophenyl)-2H-tetrazolium, inner salt) conversion assay, where MTS conversion to a formazan is proportional to cell number and can be followed by absorbance at 490 nm (Cell Titer 96 AQueous One Solution Cell Proliferation Assay, Promega, Madison, Wis.). The assay was performed according to the manufacturer's instructions.
Cell growth was estimated by subtracting the MTS conversion in cultures to which VEGF was not added. Results were expressed as a percentage of the MTS conversion in control cultures to which only VEGF was added (Buttke et al., 1993).

[4] = target: T1, denatured VEGF121 and VEGF165 (Homo sapiens, UniProt P15692); experiment: Western blot of VEGF under reducing and non-reducing conditions; format: binding
T1 sequence (P15692 27-191 isoform P15692-4): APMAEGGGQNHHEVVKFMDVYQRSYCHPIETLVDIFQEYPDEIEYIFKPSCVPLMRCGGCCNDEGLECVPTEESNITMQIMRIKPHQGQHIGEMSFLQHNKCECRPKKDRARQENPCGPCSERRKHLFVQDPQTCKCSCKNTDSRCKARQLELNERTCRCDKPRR
Method: The nitrocellulose membrane was blocked using Sea-Block PP82-41 (East Coast Biologics, Berwick, Me.), and probed with primary antibodies using a mini-blotter apparatus (Immunetics, Cambridge, Mass.). The membranes were developed after incubation with the appropriate peroxidase-conjugated secondary antibody by ECL enhanced chemiluminescence.
Western blot analyses of anti-VEGF antibodies were conducted by separating VEGF165 in the presence of 5% FCS using SDS-PAGE on a 12% gel and analyzing by a standard western blotting protocol using ECL detection. The primary antibodies were incubated with the nitrocellulose membrane using a multi-lane mini-blotter apparatus.

NCI-H358 NSCLC tumors = experiment: Treatment of established NCI-H358 NSCLC xenografts; format: in vivo, nu/nu mice
Method: (§4) Male nu/nu mice bearing subcutaneous NCI-H358 tumors or HT1080 fibrosarcoma 200-400 mm^3 in size were injected i.p. with test or control antibodies. The NCI-H358 bearing mice were treated with 100 μg of antibodies per injection three times a week during the first week and twice a week during the second and third week. The mice were then switched to 50 μg per injection every five days. The HT1080 bearing mice were treated with 100 μg of the indicated antibody or saline every other day throughout the duration of the study. In both studies, mice were sacrificed when their tumors reached 2500 mm^3 in size or earlier if tumors began to ulcerate.
Doses were 50-100 μg every 3-5 days. […] In addition to measuring mean tumor volume (FIG. 4), photographs of the mice from each treatment group were also taken to show the differences in tumor size and appearance at the end of the study.

VEGFR2 (KDR/Flk-1) = experiment: ELISA: VEGF binding to VEGFR2-coated wells in presence of antibody; parameters: species or system mouse
VEGFR1 (FLT-1) = experiment: ELISA: VEGF binding to VEGFR1-coated wells in presence of antibody
Method: The extracellular domain of VEGFR1 (Flt-1/Fc, R&D Systems, Minneapolis) or VEGFR2 (sFlk-1-biotin) was coated directly on wells of a microtiter plate or captured by NeutrAvidin (Pierce, Rockford, Ill.) coated wells, respectively. VEGF at a concentration of 1 nM (40 ng/ml) was incubated in the wells in the presence or absence of 100-1000 nM (15 μg-150 μg/ml) of control or test antibodies. The wells were then incubated with 1 μg/ml of rabbit anti-VEGF antibody (A-20, Santa Cruz Biotechnology, Santa Cruz, Calif.).
The reactions were developed by the addition of peroxidase-labeled goat anti-rabbit antibody (Dako, Carpinteria, Calif.) and visualized by addition of 3,3′5,5′-tetramethylbenzidine (TMB) substrate (Kirkegaard and Perry Laboratories, Inc.). Reactions were stopped after 15 min with 1 M H3PO4 and read spectrophotometrically at 450 nM.

[5] = target: T2, VEGF alone or VEGF associated with sFlk-1 (VEGF:Flk-1) (Homo sapiens, UniProt P15692); experiment: Indirect and capture ELISA for reactivity with VEGF alone or VEGF:Flk-1; format: binding
T2 sequence (P15692 27-191 isoform P15692-4): T1 sequence (P15692 27-191 isoform P15692-4)
Method: The Flk-1/SEAP protein was produced and purified as described by Tessler et al. (1994). Basically, the extracellular domain of Flk-1 (sFlk-1) was produced in Spodoptera frugiperda (Sf9) cells and purified by immunoaffinity techniques utilizing a monoclonal anti-Flk-1 antibody (1A8). sF1k-1 was then biotinylated and bound on avidin-coated plates.
The reactivity was determined as described above for the initial screening.
A capture ELISA was also developed. In the capture ELISA, microtiter plates were coated overnight at 4° C. with 100 ng of the indicated antibody. […] Streptavidin conjugated to peroxidase (Kirkegaard & Perry Laboratories, Inc.), diluted 1:2000, was used as a second layer and developed.

KDR = experiment: 125I-VEGF binding to KDR expressing endothelial cells (ABAE cells); parameters: species or system bovine
[6] = system: NCI-H358 human NSCLC and HT29 human colonic adenocarcinoma xenografts; experiment: In vivo localization in mice bearing human tumor xenografts (immunohistochemistry of tumor and organs)
Method: Tumors were grown subcutaneously in immunocompromised mice (NCI-H358 NSCLC in nu/nu mice and HT29 colon adenocarcinoma in SCID mice) until the tumor volume was approximately 1 cm^3. 100 μg of unlabeled antibody for studies using SCID mice, or 100 μg of biotinylated antibody for studies using nude mice, was injected intravenously via a tail vein. Twenty four hours later, the mice were anesthetized, perfused with PBS, and tumor and organs including heart, lungs, liver, kidneys, intestines and spleen were collected and snap frozen in liquid nitrogen.
The tumor and organs from each mouse were sectioned on a cryostat and stained for antibody immunohistochemically as above, with the exception that sections from the nude mice were developed using peroxidase labeled streptavidin-biotin complex (Dako, Carpinteria, Calif.) and the sections from the SCID mice were developed using two peroxidase-conjugated secondary antibodies, a goat anti-mouse IgG+IgM followed by a rabbit anti-goat IgG.
100 μg of GV39M and 3E7 or isotype-matched control IgG were injected into SCID mice bearing HT29 human colonic adenocarcinomas. Twenty-four hours later, the mice were sacrificed, exsanguinated and the tumors and tissues were removed.

HT1080 fibrosarcoma = experiment: Treatment of established HT1080 fibrosarcoma xenografts; format: in vivo, nu/nu mice; settings: 100 μg i.p. every other day; tumors 200-250 mm^3 at start
Method: as §4

[7] = system: A673 rhabdomyosarcoma and LS174T colon adenocarcinoma tumors; experiment: Treatment of mice with established A673 and LS174T tumors; settings: mouse, in vivo
[8] = system: cancer patients having progressive disease; settings: clinical trials; cited from earlier work
[9] = 100 fold molar excess over VEGF

2C3 F(ab′)2: F(ab′)2 fragment of 2C3
Blocking of VEGF binding to VEGFR2/Fc in solution (VEGFR2 (KDR/Fc)): blocked the binding of VEGF to VEGFR2/Fc
Blocking of VEGF binding to VEGFR1/Fc in solution (VEGFR1 (Flt-1/Fc)): not to VEGFR1/Fc

2C3-GUS
t½ α [1]: about 6 hours
t½ β [1]: about 25 hours
Enzymatic activity of GUS portion [2]: retained enzymatic activity

2C3: anti-VEGF monoclonal antibody, IgG2a,k, raised to recombinant human VEGF; hybridoma ATCC PTA 1595; blocks VEGF binding to VEGFR2, not VEGFR1
Blocking of VEGF-induced phosphorylation of VEGFR2 (VEGFR2): block VEGF-induced phosphorylation of VEGFR2
Blocks VEGF-induced proliferation [3]: Yes
Reactivity with VEGF on western blot [4]: react with denatured VEGF121 and VEGF165
Mean tumor weight at the end of the study (day 116) (NCI-H358 NSCLC tumors; FIG. 5A, 100 μg i.p., initial treatment 500 μg i.v.): 0.054 g
Mean tumor volume after approximately 14 wk of treatment (NCI-H358 NSCLC tumors; FIG. 5A, 100 μg i.p., start 480 mm^3 (2C3), 428 mm^3 (3E7)): 84 mm^3
Decrease in mean tumor volume (NCI-H358 NSCLC tumors; FIG. 5A, after approximately 14 wk): approximately 80%
Mean tumor volume at the end of the study, % of the initial mean tumor volume (NCI-H358 NSCLC tumors; tumors 300-450 mm^3 at start, 50-100 μg i.p. every 3-5 days, approximately 10 weeks): 30%
Reduction in VEGF binding to VEGFR2 (VEGFR2 (KDR/Flk-1); [9]): about 74%
Amount VEGF bound to VEGFR2-coated wells, % of amount bound in the absence of antibody (VEGFR2 (KDR/Flk-1); 1000-fold molar excess of antibody over VEGF (1 nM VEGF)): ~19%
Reduction in VEGF binding to VEGFR2 (VEGFR2 (KDR/Flk-1); 1000 fold molar excess over VEGF): about 81%
Blocks VEGF from binding to VEGFR2 (VEGFR2 (KDR/Flk-1); Table 5 summary): Yes
Amount VEGF that bound to ELISA wells, maintained (VEGFR1 (FLT-1); [9]): about 92%
Blocks VEGF from binding to VEGFR1 (VEGFR1 (FLT-1); Table 5 summary): No
Predominant Reactivity [5]: VEGF
Blocking of 125I-VEGF binding to KDR on ABAE cells (KDR): blocks VEGF from binding to KDR in a concentration dependent manner
Tumor localization in the HT29 human tumor model ([6]; after i.v. injection): localized strongly to the connective tissue
Immunohistochemical Reactivity, Tumor ([6]; as E17, 3E7 and GV39M bound tumor vascular endothelium, 2C3 bound tumor stroma): 3+
Effect on growth of HT1080 tumors (HT1080 fibrosarcoma): arrested the growth of the tumors
Effect on growth of established A673 and LS174T tumors [7]: significantly slowed the growth

NC(=O)c1nnn(Cc2cc(Cl)c(C(=O)c3ccc(Cl)cc3)c(Cl)c2)c1N [CAI, carboxyamidotriazole]
Disease stabilization, share of cancer patients having progressive disease before treatment [8]: 49%
